Experimental data from patent US8653096B2, “Chemokine receptor antagonists and methods of use thereof” (Millennium Pharmaceuticals, Inc., priority 2001, dated 2014).
Read-outs that look alike come from different tables or passages of the source.

Biological target: T1, RANTES/MIP-1α chemokine receptor (CCR1) in THP-1 cell membranes (Homo sapiens, UniProt P32246)
T1 construct: Membranes were prepared from THP-1 cells (ATCC #TIB202); host or cells: THP-1 cells (membrane preparation)
T1 sequence (P32246 1-355): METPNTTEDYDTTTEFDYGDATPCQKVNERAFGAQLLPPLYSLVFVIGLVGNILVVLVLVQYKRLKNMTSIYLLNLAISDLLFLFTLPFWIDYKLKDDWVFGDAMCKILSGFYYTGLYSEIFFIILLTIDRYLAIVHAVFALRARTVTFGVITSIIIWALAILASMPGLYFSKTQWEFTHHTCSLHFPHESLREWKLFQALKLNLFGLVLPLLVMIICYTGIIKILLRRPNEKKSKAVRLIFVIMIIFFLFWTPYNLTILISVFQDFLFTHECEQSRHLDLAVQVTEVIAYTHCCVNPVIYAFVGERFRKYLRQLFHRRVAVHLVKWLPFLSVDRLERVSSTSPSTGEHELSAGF
Test: Receptor binding assay: 125I-RANTES or 125I-MIP-1α binding to THP-1 cell membranes

[1] = inhibitor concentration required for 50% inhibition of specific binding, 125I-RANTES or 125I-MIP-1α as ligand, THP-1 cell membranes, read-out: IC50

IC50 [1] [µM] | Structure (SMILES) | IC50 [µM]
< 10 | CCN(CCC=C1c2cc(C(C)(C)O)ccc2OCc2ncccc21)CCN(CC)c1ccc(Cl)cc1 [Example 543, 2-{5-[3-({2-[(4-Chloro-phenyl)-ethyl-amino]-ethyl}-ethyl-amino)-propylidene]-5,11-dihydro-10-oxa-1-aza-dibenzo[a,d]cyclohepten-7-yl}-propan-2-ol] | 
< 10 | CC(C)(O)c1ccc2c(c1)C(=CCCN1CCN(c3ccc(Cl)cc3)C(C(N)=O)C1)c1cccnc1CO2 (centres unmarked) [Example 544, 1-(4-Chloro-phenyl)-4-{3-[7-(1-hydroxy-1-methyl-ethyl)-11H-10-oxa-1-aza-dibenzo[a,d]cyclohepten-5-ylidene]-propyl}-piperazine-2-carboxylic acid amide] | 
< 10 | CC(C)(O)c1ccc2c(c1)C(=CCCN1CCN(c3ccc(Cl)cc3)C(C#N)C1)c1cccnc1CO2 (centres unmarked) [Example 545, 1-(4-Chloro-phenyl)-4-{3-[7-(1-hydroxy-1-methyl-ethyl)-11H-10-oxa-1-aza-dibenzo[a,d]cyclohepten-5-ylidene]-propyl}-piperazine-2-carbonitrile] | 
< 1 | COC(=O)C1CN(CCC=C2c3cc(C(C)(C)O)ccc3OCc3ncccc32)CCN1c1ccc(Cl)cc1 (centres unmarked) [Example 546, 1-(4-Chloro-phenyl)-4-{3-[7-(1-hydroxy-1-methyl-ethyl)-11H-10-oxa-1-aza-dibenzo[a,d]cyclohepten-5-ylidene]-propyl}-piperazine-2-carboxylic acid methyl ester] | 
 | CC(C)NC(=O)Oc1ccc2c(c1)C(=CCCN1CCC(O)(c3ccc(Cl)cc3)C(C)(C)C1)c1cccnc1CO2 (centres unmarked) [Example 547, Isopropyl-carbamic acid 5-{3-[4-(4-chloro-phenyl)-4-hydroxy-3,3-dimethyl-piperidin-1-yl]-propylidene}-5,11-dihydro-10-oxa-1-aza-dibenzo[a,d]cyclohepten-7-yl ester] | < 1
< 10 | CCN(C(=O)Nc1ccc(Cl)cc1)C1CCN(CCC=C2c3cc(C(C)(C)O)ccc3OCc3ncccc32)C1 (centres unmarked) [Example 548, 3-(4-Chloro-phenyl)-1-ethyl-1-(1-{3-[7-(1-hydroxy-1-methyl-ethyl)-11H-10-oxa-1-aza-dibenzo[a,d]cyclohepten-5-ylidene]-propyl}-pyrrolidin-3-yl)-urea] | 
< 1 | CC(C)(O)c1ccc2c(c1)C(=CCCN1CCC(OCc3ccc(Cl)cc3)C1)c1cccnc1CO2 (centres unmarked) [Example 549, 2-(5-{3-[3-(4-Chloro-benzyloxy)-pyrrolidin-1-yl]-propylidene}-5,11-dihydro-10-oxa-1-aza-dibenzo[a,d]cyclohepten-7-yl)-propan-2-ol] | 
< 1 | CC(C)CN(Cc1ccc(Cl)cc1)C1CCN(CCC=C2c3cc(C(C)(C)O)ccc3OCc3ncccc32)C1 (centres unmarked) [Example 550, 2-[5-(3-{3-[(4-Chloro-benzyl)-isobutyl-amino]-pyrrolidin-1-yl}-propylidene)-5,11-dihydro-10-oxa-1-aza-dibenzo[a,d]cyclohepten-7-yl]-propan-2-ol] | 
< 1 | CC(C)N(Cc1ccc(Cl)cc1)C1CCN(CCC=C2c3cc(C(C)(C)O)ccc3OCc3ncccc32)C1 (centres unmarked) [Example 551, 2-[5-(3-{3-[(4-Chloro-benzyl)-isopropyl-amino]-pyrrolidin-1-yl}-propylidene)-5,11-dihydro-10-oxa-1-aza-dibenzo[a,d]cyclohepten-7-yl]-propan-2-ol] | 
< 1 | CC(C)(O)c1ccc2c(c1)C(=CCCN1CCC(N(CC(N)=O)Cc3ccc(Cl)cc3)C1)c1cccnc1CO2 (centres unmarked) [Example 552, 2-[(4-Chloro-benzyl)-(1-{3-[7-(1-hydroxy-1-methyl-ethyl)-11H-10-oxa-1-azadibenzo[a,d]cyclohepten-5-ylidene]-propyl}-pyrrolidin-3-yl)-amino]-acetamide] | 
< 1 | CCNC(=O)CN(Cc1ccc(Cl)cc1)C1CCN(CCC=C2c3cc(C(C)(C)O)ccc3OCc3ncccc32)C1 (centres unmarked) [Example 553, 2-[(4-Chloro-benzyl)-(1-{3-[7-(1-hydroxy-1-methyl-ethyl)-11H-10-oxa-1-aza-dibenzo[a,d]cyclohepten-5-ylidene]-propyl}-pyrrolidin-3-yl)-amino]-N-ethyl-acetamide] | 
< 1 | CC(C)(O)c1ccc2c(c1)C(=CCCN1CCC(N(CCO)Cc3ccc(Cl)cc3)C1)c1cccnc1CO2 (centres unmarked) [Example 554, 2-[5-(3-{3-[(4-Chloro-benzyl)-(2-hydroxy-ethyl)-amino]-pyrrolidin-1-yl}-propylidene)-5,11-dihydro-10-oxa-1-aza-dibenzo[a,d]cyclohepten-7-yl]-propan-2-ol] | 
< 1 | COC(=O)CCN(Cc1ccc(Cl)cc1)C1CCN(CCC=C2c3cc(C(C)(C)O)ccc3OCc3ncccc32)C1 (centres unmarked) [Example 555, 3-[(4-Chloro-benzyl)-(1-{3-[7-(1-hydroxy-1-methyl-ethyl)-11H-10-oxa-1-aza-dibenzo[a,d]cyclohepten-5-ylidene]-propyl}-pyrrolidin-3-yl)-amino]-propionic acid methyl ester] | 
< 1 | C[C@H]1CN(CCC=C2c3cc(C(C)(C)O)ccc3OCc3ncccc32)CCN1c1ccc(Cl)cc1 [Example 556, 2-(5-{3-[4-(4-Chloro-phenyl)-3-(S)-methyl-piperazin-1-yl]-propylidene}-5,11-dihydro-10-oxa-1-aza-dibenzo[a,d]cyclohepten-7-yl)-propan-2-ol] | 
< 1 | C[C@@H]1CN(CCC=C2c3cc(C(C)(C)O)ccc3OCc3ncccc32)CCN1c1ccc(Cl)cc1 [Example 557, 2-(5-{3-[4-(4-Chloro-phenyl)-3-(R)-methyl-piperazin-1-yl]-propylidene}-5,11-dihydro-10-oxa-1-aza-dibenzo[a,d]cyclohepten-7-yl)-propan-2-ol] | 
< 10 | COC(=O)CC1CN(CCC=C2c3cc(C(C)(C)O)ccc3OCc3ncccc32)CCN1c1ccc(Cl)cc1 (centres unmarked) [Example 558, (1-(4-Chloro-phenyl)-4-{3-[7-(1-hydroxy-1-methyl-ethyl)-11H-10-oxa-1-aza-dibenzo[a,d]cyclohepten-5-ylidene]-propyl}-piperazin-2-yl)-acetic acid methyl ester] | 
< 10 | CC(=O)N(Cc1ccc(Cl)cc1)C1CCN(CCC=C2c3cc(C(C)(C)O)ccc3OCc3ncccc32)C1 (centres unmarked) [Example 561, N-(4-Chloro-benzyl)-N-(1-{3-[7-(1-hydroxy-1-methyl-ethyl)-11H-10-oxa-1-aza-dibenzo[a,d]cyclohepten-5-ylidene]-propyl}-pyrrolidin-3-yl)-acetamide] | 
< 10 | CC(C)C(=O)N(Cc1ccc(Cl)cc1)C1CCN(CCC=C2c3cc(C(C)(C)O)ccc3OCc3ncccc32)C1 (centres unmarked) [Example 562, N-(4-Chloro-benzyl)-N-(1-{3-[7-(1-hydroxy-1-methyl-ethyl)-11H-10-oxa-1-aza-dibenzo[a,d]cyclohepten-5-ylidene]-propyl}-pyrrolidin-3-yl)-isobutyramide] | 
< 10 | CCC(=O)N(Cc1ccc(Cl)cc1)C1CCN(CCC=C2c3cc(C(C)(C)O)ccc3OCc3ncccc32)C1 (centres unmarked) [Example 563, N-(4-Chloro-benzyl)-N-(1-{3-[7-(1-hydroxy-1-methyl-ethyl)-11H-10-oxa-1-aza-dibenzo[a,d]cyclohepten-5-ylidene]-propyl}-pyrrolidin-3-yl)-propionamide] | 

Structure (SMILES) | IC50 [1] [µM] | IC50 [µM]
CC1(C)CN(CCC=C2c3cc(OCCN4CCOCC4)ccc3OCc3ncccc32)CCC1(O)c1ccc(Cl)cc1 (centres unmarked) [Example 559, 4-(4-Chloro-phenyl)-3,3-dimethyl-1-{3-[7-(2-morpholin-4-yl-ethoxy)-11H-10-oxa-1-aza-dibenzo[a,d]cyclohepten-5-ylidene]-propyl}-piperidin-4-ol] | < 1 | 
